How the values were obtained:
[1] = system: WT, RAG1^−/−, TCRa^−/− and JHT recipient mice; experiment: Adoptive transfer of Th17-polarized peptide-specific T cells, clinical and histologic CNS disease; format: in vivo, mouse
Description: FIGS. 5A-5B. Pathogenic AQP4-specific Th17 cells induce sustained CNS autoimmune disease in T cell-deficient mice. (FIG. 5A) Th17-polarized AQP4 p133-149-specific T cells from AQP4−/− mice were transferred into WT, T cell- and B cell-deficient (T cell-/B cell-, RAG1^−/−), T cell-deficient (T cell-, TCRa^−/−) and B cell-deficient (B cell-, JHT) recipient mice then scored for clinical disease. Donor Th17-polarized MOG p35-55-specific T cells were transferred into WT recipient mice as a control. Results are representative of four experiments (n=5 per group). (FIG. 5B) Recipient mice were evaluated for histologic evidence of meningeal and CNS parenchymal inflammation (H&E). Results are representative of two experiments (2-4 mice/group/time-point/experiment).
CNS autoimmune disease induction and analysis. For adoptive induction of CNS disease with primary lymphocytes, mice were immunized s.c. with 100 μg AQP4 or MOG peptides in CFA containing 400 μg M. tuberculosis H37Ra (Difco Laboratories). After 10-12 days, lymph node cells were cultured with 15 μg/ml antigen for 3 days with 20 ng/ml IL-23 and 10 ng/ml IL-6, under Th17 polarizing conditions. 2×10^7 cells were injected i.v. into naïve recipients, which then received 200 ng B. pertussis toxin (Ptx) (List Biological) i.p. on days 0 and 2. Clinical scores: 0=no disease, 1=tail tone loss, 2=impaired righting, 3=severe paraparesis or paraplegia, 4=quadraparesis, and 5=moribund or death.
For induction of CNS disease by I-A^b:AQP4 tet-sorted cells targeted cells, primary lymph node cells from AQP4 or WT mice were restimulated with […] antigen and irradiated splenocytes every 10 days. Percent tetramer binding was monitored by flow cytometry. In preparation for adoptive transfer, cells were washed and cultured with 1:10 T cell-to-irradiated splenocytes under polarizing conditions for 3 days. CD4^+ cells were negatively sorted using magnetic beads (Miltenyi). 5×10^6 were transferred to TCRa^−/− recipients. 200 ng Ptx was given on days 0 and 2.
Histopathology. Brain, spinal cord, optic nerve, kidney and muscle tissue samples were fixed in 10% neutral-buffered formalin, paraffin-embedded, sectioned and stained with H&E. Meningeal and parenchymal inflammatory lesions and areas of demyelination were assessed in a blinded manner as described (39).

[2] = system: CD4^+ T cells; experiment: I-A^b:peptide tetramer binding by flow cytometry after peptide immunization; format: cell-based, mouse
Protocol: FIGS. 4A-4B. Negative selection of AQP4 p133-149-reactive T cells is bypassed partially in mice deficient in thymic AQP4 expression. (FIG. 4A) AQP4^−/− WT, Foxn1cre-AQP4^fl/fl, Aire^−/−, or Foxn1cre-Fezf2^fl/fl mice were immunized s.c. with peptides indicated. Peptide-specific proliferation of draining lymph node cells was measured by 3H-thymidine incorporation (mean±SEM, representative of five experiments). Comparisons within the five experiments for p133-149 at […]: WT vs. AQP4^−/− (p=0.008), WT vs. Foxn1cre-AQP4^fl/fl (p=0.008). (FIG. 4B) Ten days after peptide immunization, CD4^+ T cells from draining lymph nodes were analyzed for I-A^b: peptide tetramer binding by flow cytometry. Each data point represents the frequency (mean±SEM) of CD4^+ T cells bound to cognate antigen-tetramer in a single mouse. […] For p133-149: WT vs. Aire^−/− (p=0.9), WT vs. Foxn1cre-Fezf2^fl/fl (p=0.3). For p202-218: WT vs. Foxn1cre-AQP4^fl/fl (p=0.3), WT vs. Aire^−/− (p=0.06).
Flow cytometry. For analysis of tetramer binding, AQP4 p133-149, p202-218, IRBP p277-289 and hCLIP p87-101 IA^b tetramers conjugated to PE or APC were provided by the National Institute of Allergy and Infectious Diseases Tetramer Core Facility at Emory University. Lymphocytes were coincubated with 1 mg/ml tetramer conjugated to PE or APC for 2 hours at room temperature, washed and enriched using anti-PE magnetic microbeads (Miltenyi) over a magnetic column. Binding to hCLIP tetramer was used as a negative control. Dead cells were excluded using Live/Dead fixable Aqua Dead Cell Stain Kit (Invitrogen), lineage negative cells were excluded using antibodies to CD11b (M1/70), B220 (RA3-6B2) and CD8 (53-6.7) and positive cells were selected using antibodies to CD3 (145-2C11) and CD4 (RM4.5). 123count eBeads (Invitrogen) were used with unenriched and enriched samples for quantification of the frequency of tet^+CD4^+ T cells (total number of tet^+CD4+ T cells divided by total CD4^+ T cells per mouse). For figures showing tetramer staining, flow cytometry of the unenriched cells are shown. For analysis of GFP^+ T cells, mice were perfused with PBS, and the CNS was dissected, minced, digested with collagenase and DNase I (Roche), and isolated over a Ficoll gradient as described previously (39). Live CD4^+ cells were analyzed with a viability stain (Near-IR), and antibodies to CD11b, B220, CD8 and CD4. Apoptosis was analyzed separately using the same antibody staining, followed by Annexin V and 7-AAD staining in Annexin V binding buffer (BioLegend) per manufacturer's instructions. Cells were quantified using 123count eBeads.

[3] = system: Foxn1cre-AQP4^fl/fl mice; experiment: CNS autoimmunity by direct peptide immunization; format: in vivo, mouse
[4] = AQP4^−/− mice compared with the other strains, cognate I-A^b:peptide tetramer
[5] = Foxn1cre-AQP4^fl/fl (thymic AQP4-deficient) mice compared with WT mice
[6] = donor Th17 cells from AQP4^−/− mice, recipient WT and JHT mice

Row | Sequence | clinical and histologic CNS disease after transfer of peptide-specific Th17 cells ([1]; WT recipient mice) | frequency of CD4^+ tet^+ T cells [2, 4] | frequency of CD4^+ tet^+ T cells [2, 5] | CNS autoimmunity after transfer of tet^+-sorted T cells ([1]; I-A^b:AQP4 p133-149 tet^+-sorted T cells from immunized AQP4^−/− mice) | onset of paralysis after transfer [1, 6] [days] | time from onset to complete recovery [1, 6] [days] | clinical and histologic CNS disease after transfer of peptide-specific Th17 cells ([1]; recipient RAG1^−/− and TCRa^−/− mice) | CNS inflammation (H&E) ([1]; recipient WT and JHT mice, day 21) | frequency of CD4^+ tet^+ T cells ([2]; Foxn1cre-AQP4^fl/fl mice compared with AQP4^−/− mice) | CNS autoimmunity by immunization [3]
1 | LFAINYTGASMNPARSF [AQP4 p202-218] | capable of inducing paralysis and CNS inflammation in WT mice | elevated in AQP4^−/− mice in comparison to other strains | did not permit significant restoration |  |  |  |  |  |  | 
2 | LYLVTPPSVVGGLGVT [AQP4 p133-149] | capable of inducing paralysis and CNS inflammation in WT mice | significantly elevated in AQP4^−/− mice | significantly elevated in comparison to AQP4 p133-149-specific T cells in WT mice | transferred CNS autoimmunity to WT mice | ~7 | 4 to 5 | persistent paralysis and CNS inflammation | no longer evident after recovery | significantly lower than in AQP4^−/− mice | resistant to CNS autoimmunity
